Like-named read-outs stand apart in the source and are kept apart here.
Assays:
[1] = tested on: P. aeruginosa strains with elevated MICs to Polymyxin B; assay: MIC against strains with elevated MICs to Polymyxin B; type: cell-based, Pseudomonas aeruginosa; conditions: Table 6D; for MIC P. aeruginosa 065: strain 065, elevated MIC to Polymyxin B; for MIC P. aeruginosa 066: strain 066, elevated MIC to Polymyxin B; for MIC P. aeruginosa 067: strain 067, elevated MIC to Polymyxin B
How it was run: (§1)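 Inoculum was a direct suspension of colonies from an 18-24 hour Mueller-Hinton agar plate, adjusted to the 0.5 McFarland standard. Duplicate assays; the lower value was reported when duplicates differed by less than 2-fold, otherwise the run was invalid. Repeat-tested compounds give the modal MIC.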

[2] = tested on: A. baumanii strains with elevated MICs to Polymyxin B; assay: MIC against strains with elevated MICs to Polymyxin B; type: cell-based, Acinetobacter baumannii; conditions: Table 6D; for MIC A. baumannii 053: strain 053, elevated MIC to Polymyxin B; for MIC A. baumannii 056: strain 056, elevated MIC to Polymyxin B; for MIC A. baumannii 068: strain 068, elevated MIC to Polymyxin B; for MIC A. baumannii 070: strain 070, elevated MIC to Polymyxin B
How it was run: as §1

[3] = tested on: K. pneumoniae strains with elevated MICs to Polymyxin B; assay: as above; type: cell-based, Klebsiella pneumoniae; conditions: Table 6D; for MIC K. pneumoniae 062: strain 062, elevated MIC to Polymyxin B; for MIC K. pneumoniae 063: strain 063, elevated MIC to Polymyxin B; for MIC K. pneumoniae 064: strain 064, elevated MIC to Polymyxin B; for MIC K. pneumoniae 655: strain 655, elevated MIC to Polymyxin B
How it was run: as §1

[4] = tested on: E. coli strains with elevated MICs to Polymyxin B; assay: MIC against strains with elevated MICs to Polymyxin B; type: cell-based, Escherichia coli; conditions: Table 6D; for MIC E. coli 058: strain 058, elevated MIC to Polymyxin B; for MIC E. coli 059: strain 059, elevated MIC to Polymyxin B; for MIC E. coli 060: strain 060, elevated MIC to Polymyxin B; for MIC E. coli 061: strain 061, elevated MIC to Polymyxin B
How it was run: as §1

[5] = absence of a second agent, Table 6B

Substance | MIC P. aeruginosa 065 [1] [micrograms/mL] | MIC P. aeruginosa 066 [1] [micrograms/mL] | MIC P. aeruginosa 067 [1] [micrograms/mL] | MIC A. baumannii 053 [2] [micrograms/mL] | MIC A. baumannii 056 [2] [micrograms/mL] | MIC A. baumannii 068 [2] [micrograms/mL] | MIC A. baumannii 070 [2] [micrograms/mL] | MIC K. pneumoniae 062 [3] [micrograms/mL] | MIC K. pneumoniae 063 [3] [micrograms/mL] | MIC K. pneumoniae 064 [3] [micrograms/mL] | MIC K. pneumoniae 655 [3] [micrograms/mL] | MIC E. coli 058 [4] [micrograms/mL] | MIC E. coli 059 [4] [micrograms/mL] | MIC E. coli 060 [4] [micrograms/mL] | MIC E. coli 061 [4] [micrograms/mL] | MIC, A. baumannii ATCC BAA-747 (A. baumannii; sole activity, Table 6C) [micrograms/mL] | MIC, A. baumannii NCTC 13424 (A. baumannii; sole activity, Table 6C) [micrograms/mL] | MIC, K. pneumoniae ATCC 4352 (K. pneumoniae; sole activity, Table 6C) [micrograms/mL] | MIC, E. coli ATCC 25922 (E. coli; sole activity, Table 6C) [micrograms/mL] | MIC, P. aeruginosa ATCC 27853 (P. aeruginosa; sole activity, Table 6C) [micrograms/mL] | also measured
(trans-5- octylpiperidine)-3- carbonyl polymyxin B nonapeptide [Example D23] | 0.5 | 1 | 8 | 2 | 0.5 | 1 | 1 | 4 | 4 | 1 | 4 | 0.5 | 0.25 | 1 | 1 |  |  |  |  |  | MIC, A. baumannii ATCC BAA-747 (A. baumannii; [5]): 0.25 micrograms/mL; MIC, A. baumannii NCTC 13424 (A. baumannii; [5]): 0.25 micrograms/mL; MIC, K. pneumoniae ATCC BAA-2146 (K. pneumoniae; [5]): 1 micrograms/mL; MIC, E. coli NCTC 13441 (E. coli; [5]): 1 micrograms/mL; MIC, P. aeruginosa ATCC 27853 (P. aeruginosa; [5]): 0.5 micrograms/mL; MIC, P. aeruginosa CCUG 59347 (P. aeruginosa; [5]): 0.5 micrograms/mL
(trans-5-(isobutyl- piperidine)-3- carbonyl L-Ser- L-Dap-polymyxin B heptapeptide [Example D79] | 16 | 8 | >128 | 128 | 32 | 8 | 16 | 64 | >128 | 8 | 128 | 8 | 8 | 4 | 8 | 0.06 | 0.125 | 0.06 | 0.125 | 0.25 | MIC, K. pneumoniae ATCC BAA-2146 (K. pneumoniae; sole activity, Table 6C): 0.125 micrograms/mL; MIC, E. coli NCTC 13441 (E. coli; sole activity, Table 6C): 0.125 micrograms/mL; MIC, P. aeruginosa CCUG 59347 (P. aeruginosa; sole activity, Table 6C): 0.25 micrograms/mL
(trans-5-(isobutyl- piperidine)-3- carbonyl L-Thr- D-Dap-polymyxin B heptapeptide [Example D87] | 0.5 | 0.25 | 64 | 32 | 2 | 2 | 2 | 8 | 8 | 0.5 | 4 | 1 | 1 | 1 | 4 | 0.03 | 0.03 | 0.06 | 0.03 | 0.25 | MIC, P. aeruginosa CCUG 59347 (P. aeruginosa; sole activity, Table 6C): 1 micrograms/mL

— patent US20210221848A1, “POLYMYXIN DERIVATIVES AND THEIR USE IN COMBINATION THERAPY TOGETHER WITH DIFFERENT ANTIBIOTICS” (priority 2014, published 2021)
